{
  "source": "paper PMC8213057",
  "about": "“Targeting ALK2: An Open Science Approach to Developing Therapeutics for the Treatment of Diffuse Intrinsic Pontine Glioma” (Journal of Medicinal Chemistry, 2020)",
  "key": {"[1]": {"target": "ABL2/ARG (Homo sapiens, UniProt P42684)", "sequence (P42684 whole entry)": "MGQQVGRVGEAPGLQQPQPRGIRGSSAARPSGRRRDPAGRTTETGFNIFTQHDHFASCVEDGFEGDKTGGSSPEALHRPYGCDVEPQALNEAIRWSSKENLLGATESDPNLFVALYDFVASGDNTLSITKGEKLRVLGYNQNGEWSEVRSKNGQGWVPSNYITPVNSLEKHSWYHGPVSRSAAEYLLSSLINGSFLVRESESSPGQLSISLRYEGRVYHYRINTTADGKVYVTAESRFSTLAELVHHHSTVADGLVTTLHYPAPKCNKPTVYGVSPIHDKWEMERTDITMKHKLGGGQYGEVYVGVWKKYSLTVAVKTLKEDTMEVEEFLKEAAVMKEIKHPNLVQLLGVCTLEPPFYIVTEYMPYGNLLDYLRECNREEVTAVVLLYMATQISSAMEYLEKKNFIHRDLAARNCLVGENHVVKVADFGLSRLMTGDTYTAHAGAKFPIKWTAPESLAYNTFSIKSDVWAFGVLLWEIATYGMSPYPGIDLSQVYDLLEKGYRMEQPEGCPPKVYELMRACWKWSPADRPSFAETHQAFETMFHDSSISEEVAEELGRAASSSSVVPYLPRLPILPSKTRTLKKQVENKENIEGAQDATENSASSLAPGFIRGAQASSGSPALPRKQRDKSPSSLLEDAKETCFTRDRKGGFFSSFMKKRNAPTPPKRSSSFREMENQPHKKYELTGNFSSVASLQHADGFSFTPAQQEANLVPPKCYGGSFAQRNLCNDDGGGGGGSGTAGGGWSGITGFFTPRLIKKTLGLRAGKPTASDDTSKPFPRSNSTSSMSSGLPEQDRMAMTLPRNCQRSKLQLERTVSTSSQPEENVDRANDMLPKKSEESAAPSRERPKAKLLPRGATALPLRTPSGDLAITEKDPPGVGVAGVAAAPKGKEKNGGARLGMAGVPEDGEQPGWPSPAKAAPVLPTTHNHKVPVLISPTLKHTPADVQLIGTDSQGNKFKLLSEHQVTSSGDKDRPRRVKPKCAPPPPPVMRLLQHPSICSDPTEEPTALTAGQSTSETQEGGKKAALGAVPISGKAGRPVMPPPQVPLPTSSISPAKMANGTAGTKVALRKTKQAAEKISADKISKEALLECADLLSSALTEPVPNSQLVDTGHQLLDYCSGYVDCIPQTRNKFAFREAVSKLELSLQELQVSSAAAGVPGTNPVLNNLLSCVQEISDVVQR", "conditions": "1 μM; Run 1, Run 2"}, "[2]": {"target": "T1, HIPK4 (Homo sapiens, UniProt Q8NE63)", "T1 sequence (Q8NE63 1-616)": "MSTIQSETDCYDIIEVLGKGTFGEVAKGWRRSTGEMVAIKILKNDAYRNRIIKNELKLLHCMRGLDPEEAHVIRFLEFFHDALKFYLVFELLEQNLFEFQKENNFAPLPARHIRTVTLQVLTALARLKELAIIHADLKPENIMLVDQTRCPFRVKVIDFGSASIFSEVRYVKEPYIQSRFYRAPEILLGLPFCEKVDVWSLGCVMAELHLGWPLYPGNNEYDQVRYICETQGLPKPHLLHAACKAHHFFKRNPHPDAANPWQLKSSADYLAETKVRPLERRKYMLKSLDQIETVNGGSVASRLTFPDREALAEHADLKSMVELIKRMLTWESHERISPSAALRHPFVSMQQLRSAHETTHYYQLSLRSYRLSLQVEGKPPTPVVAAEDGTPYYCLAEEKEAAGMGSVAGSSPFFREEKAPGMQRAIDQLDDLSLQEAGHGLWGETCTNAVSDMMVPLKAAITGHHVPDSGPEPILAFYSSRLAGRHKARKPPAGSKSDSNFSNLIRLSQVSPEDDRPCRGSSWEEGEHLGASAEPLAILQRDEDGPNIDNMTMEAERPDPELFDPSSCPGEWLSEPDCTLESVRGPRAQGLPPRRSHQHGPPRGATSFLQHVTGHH", "conditions": "1 μM; Run 1, Run 2"}, "[3]": {"target": "T2, MKK7 (Homo sapiens, UniProt O14733)", "T2 sequence (O14733 1-419)": "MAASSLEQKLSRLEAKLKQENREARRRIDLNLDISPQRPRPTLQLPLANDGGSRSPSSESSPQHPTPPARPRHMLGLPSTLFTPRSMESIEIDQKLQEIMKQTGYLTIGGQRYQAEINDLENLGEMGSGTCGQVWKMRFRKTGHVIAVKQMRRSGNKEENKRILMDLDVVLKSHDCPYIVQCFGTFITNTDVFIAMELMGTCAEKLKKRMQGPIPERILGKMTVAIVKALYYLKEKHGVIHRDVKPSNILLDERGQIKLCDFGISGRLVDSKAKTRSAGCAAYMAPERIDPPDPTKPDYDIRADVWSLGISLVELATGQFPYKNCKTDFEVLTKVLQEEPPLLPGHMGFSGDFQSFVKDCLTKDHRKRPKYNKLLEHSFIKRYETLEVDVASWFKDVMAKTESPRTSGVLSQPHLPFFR", "conditions": "1 μM; Run 1, Run 2"}, "[4]": {"target": "NEK4 (Homo sapiens, UniProt P51957)", "sequence (P51957 whole entry)": "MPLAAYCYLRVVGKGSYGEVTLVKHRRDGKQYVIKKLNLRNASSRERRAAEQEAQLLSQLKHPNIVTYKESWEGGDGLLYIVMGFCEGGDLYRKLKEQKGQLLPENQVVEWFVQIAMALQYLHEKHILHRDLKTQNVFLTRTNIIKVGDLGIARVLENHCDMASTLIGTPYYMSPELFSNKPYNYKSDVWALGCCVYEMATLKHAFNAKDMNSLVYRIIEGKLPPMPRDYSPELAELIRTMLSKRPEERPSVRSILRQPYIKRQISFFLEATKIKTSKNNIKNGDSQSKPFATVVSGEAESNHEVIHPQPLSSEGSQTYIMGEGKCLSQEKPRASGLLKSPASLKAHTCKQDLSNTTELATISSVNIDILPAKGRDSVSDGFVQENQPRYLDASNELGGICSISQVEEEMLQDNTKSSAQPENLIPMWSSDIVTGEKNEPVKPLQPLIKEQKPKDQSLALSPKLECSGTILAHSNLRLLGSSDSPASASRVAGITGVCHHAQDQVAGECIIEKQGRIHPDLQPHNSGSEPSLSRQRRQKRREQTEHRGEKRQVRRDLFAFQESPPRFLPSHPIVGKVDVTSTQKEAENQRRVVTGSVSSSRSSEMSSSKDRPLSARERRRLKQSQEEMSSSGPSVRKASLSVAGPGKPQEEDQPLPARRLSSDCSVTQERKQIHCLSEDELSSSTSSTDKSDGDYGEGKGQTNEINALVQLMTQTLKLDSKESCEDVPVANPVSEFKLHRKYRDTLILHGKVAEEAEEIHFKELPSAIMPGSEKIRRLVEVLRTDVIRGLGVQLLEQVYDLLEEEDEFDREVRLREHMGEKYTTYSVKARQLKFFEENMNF", "conditions": "1 μM; Run 1, Run 2"}, "[5]": {"target": "PDGFRb (Homo sapiens, UniProt P09619)", "conditions": "1 μM; Run 1, Run 2"}, "[6]": {"target": "ALK (Homo sapiens, UniProt Q9UM73)", "sequence (Q9UM73 19-1620)": "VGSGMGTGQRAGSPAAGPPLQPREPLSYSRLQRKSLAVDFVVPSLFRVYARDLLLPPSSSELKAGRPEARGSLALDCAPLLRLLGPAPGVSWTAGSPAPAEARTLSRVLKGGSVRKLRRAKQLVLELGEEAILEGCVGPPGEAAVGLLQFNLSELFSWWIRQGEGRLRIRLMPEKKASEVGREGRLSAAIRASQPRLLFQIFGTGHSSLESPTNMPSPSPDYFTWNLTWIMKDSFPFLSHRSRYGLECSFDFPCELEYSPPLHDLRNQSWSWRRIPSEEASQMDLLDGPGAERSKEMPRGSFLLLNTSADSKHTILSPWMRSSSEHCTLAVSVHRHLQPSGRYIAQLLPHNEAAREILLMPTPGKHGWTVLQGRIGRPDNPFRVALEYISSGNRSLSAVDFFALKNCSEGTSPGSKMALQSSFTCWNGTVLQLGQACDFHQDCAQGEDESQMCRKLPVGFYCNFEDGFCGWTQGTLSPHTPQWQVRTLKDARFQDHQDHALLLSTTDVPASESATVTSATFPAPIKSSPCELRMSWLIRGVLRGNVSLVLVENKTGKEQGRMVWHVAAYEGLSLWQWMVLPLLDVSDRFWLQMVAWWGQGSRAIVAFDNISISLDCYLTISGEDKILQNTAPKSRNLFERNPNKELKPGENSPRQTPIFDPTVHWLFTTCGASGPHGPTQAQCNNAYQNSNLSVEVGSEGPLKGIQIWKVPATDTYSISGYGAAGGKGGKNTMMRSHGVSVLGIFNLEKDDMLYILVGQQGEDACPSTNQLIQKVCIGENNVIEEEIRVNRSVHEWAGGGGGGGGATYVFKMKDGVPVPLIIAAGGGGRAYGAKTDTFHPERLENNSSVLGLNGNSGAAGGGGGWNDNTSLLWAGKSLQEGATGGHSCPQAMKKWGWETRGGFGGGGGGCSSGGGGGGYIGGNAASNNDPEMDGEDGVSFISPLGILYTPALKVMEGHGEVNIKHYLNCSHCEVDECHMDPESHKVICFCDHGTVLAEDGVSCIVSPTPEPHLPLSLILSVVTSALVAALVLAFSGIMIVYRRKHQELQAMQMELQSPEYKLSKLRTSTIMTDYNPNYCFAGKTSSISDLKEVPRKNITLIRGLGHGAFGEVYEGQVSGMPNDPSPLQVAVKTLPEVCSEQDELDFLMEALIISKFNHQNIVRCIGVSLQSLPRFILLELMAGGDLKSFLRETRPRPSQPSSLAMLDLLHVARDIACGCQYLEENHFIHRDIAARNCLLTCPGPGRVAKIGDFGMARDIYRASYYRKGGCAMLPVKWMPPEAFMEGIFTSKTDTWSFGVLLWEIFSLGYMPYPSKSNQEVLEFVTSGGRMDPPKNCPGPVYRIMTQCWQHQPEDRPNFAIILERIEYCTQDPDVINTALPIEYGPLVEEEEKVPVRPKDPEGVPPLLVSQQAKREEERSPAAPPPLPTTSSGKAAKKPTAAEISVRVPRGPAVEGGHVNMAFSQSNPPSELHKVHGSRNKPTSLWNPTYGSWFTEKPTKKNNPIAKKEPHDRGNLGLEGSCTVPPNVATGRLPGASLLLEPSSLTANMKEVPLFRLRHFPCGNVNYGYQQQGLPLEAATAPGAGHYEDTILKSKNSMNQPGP", "assay": "biochemical", "conditions": "read-out: % enzyme activity, 1 μM; Run 1, Run 2"}, "[7]": {"target": "BRK (Homo sapiens, UniProt Q13882)", "sequence (Q13882 whole entry)": "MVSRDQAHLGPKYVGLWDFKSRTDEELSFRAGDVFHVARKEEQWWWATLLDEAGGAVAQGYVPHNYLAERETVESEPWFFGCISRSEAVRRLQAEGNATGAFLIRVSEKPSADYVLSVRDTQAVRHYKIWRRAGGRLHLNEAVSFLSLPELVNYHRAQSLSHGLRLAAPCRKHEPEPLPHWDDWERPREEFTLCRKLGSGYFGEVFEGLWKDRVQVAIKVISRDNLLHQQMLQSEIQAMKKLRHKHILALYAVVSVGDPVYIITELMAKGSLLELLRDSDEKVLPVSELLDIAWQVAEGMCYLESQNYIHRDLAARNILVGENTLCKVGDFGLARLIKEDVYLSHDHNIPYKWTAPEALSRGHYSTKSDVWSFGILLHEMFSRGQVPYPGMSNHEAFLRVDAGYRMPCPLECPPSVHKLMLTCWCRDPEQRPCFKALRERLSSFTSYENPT", "assay": "biochemical", "conditions": "read-out: % enzyme activity, 1 μM; Run 1, Run 2"}, "[8]": {"target": "T3, CTK/MATK (Homo sapiens, UniProt P42679)", "T3 sequence (P42679 1-507)": "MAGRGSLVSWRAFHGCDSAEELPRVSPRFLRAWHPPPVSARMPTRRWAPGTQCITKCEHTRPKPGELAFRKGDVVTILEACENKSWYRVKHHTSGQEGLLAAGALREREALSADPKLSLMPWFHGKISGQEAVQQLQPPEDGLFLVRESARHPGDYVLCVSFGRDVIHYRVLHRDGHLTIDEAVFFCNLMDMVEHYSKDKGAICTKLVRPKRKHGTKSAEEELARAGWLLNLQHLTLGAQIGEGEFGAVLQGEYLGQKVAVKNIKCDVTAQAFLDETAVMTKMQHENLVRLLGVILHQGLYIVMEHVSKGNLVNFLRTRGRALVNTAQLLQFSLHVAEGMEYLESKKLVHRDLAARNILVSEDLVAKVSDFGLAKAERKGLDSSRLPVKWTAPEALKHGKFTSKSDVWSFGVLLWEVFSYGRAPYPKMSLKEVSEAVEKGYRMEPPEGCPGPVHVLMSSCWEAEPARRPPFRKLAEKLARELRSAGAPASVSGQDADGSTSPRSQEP", "assay": "biochemical", "conditions": "read-out: % enzyme activity, 1 μM; Run 1, Run 2"}, "[9]": {"target": "T4, TYRO3/SKY (Homo sapiens, UniProt Q06418)", "T4 sequence (Q06418 41-890)": "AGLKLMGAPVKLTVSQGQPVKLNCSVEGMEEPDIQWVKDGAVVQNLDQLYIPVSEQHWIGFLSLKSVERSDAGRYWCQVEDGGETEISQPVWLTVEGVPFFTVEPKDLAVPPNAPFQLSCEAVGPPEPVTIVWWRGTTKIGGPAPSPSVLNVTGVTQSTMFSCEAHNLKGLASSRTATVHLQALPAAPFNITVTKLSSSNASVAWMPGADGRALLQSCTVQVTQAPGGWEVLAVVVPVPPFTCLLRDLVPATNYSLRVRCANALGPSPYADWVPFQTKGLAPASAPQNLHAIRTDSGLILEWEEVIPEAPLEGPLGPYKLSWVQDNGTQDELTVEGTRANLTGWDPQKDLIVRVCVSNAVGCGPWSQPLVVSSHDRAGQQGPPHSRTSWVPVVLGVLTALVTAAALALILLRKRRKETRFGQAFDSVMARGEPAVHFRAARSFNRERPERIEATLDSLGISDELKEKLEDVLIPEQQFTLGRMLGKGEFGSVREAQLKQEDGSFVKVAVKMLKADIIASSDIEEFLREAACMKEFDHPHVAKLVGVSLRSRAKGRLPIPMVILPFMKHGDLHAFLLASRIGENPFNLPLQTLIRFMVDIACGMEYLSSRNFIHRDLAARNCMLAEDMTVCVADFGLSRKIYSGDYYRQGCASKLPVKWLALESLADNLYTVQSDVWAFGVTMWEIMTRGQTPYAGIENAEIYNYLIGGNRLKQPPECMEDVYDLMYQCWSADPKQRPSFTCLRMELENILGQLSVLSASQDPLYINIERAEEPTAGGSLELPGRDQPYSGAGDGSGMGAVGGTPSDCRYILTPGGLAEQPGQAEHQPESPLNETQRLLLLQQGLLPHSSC", "assay": "biochemical", "conditions": "read-out: % enzyme activity, 1 μM; Run 1, Run 2"}},
  "data": [
    {"compound": "COc1cc(-c2cncc(-c3ccc(N4CCN(C)CC4)cc3)c2C)cc(F)c1C(N)=O", "note": "[Compound 26a, 2-Fluoro-6-methoxy-4-(4-methyl-5-(4-(4-methylpiperazin-1-yl)phenyl)pyridin-3-yl)benzamide]", "values": [
      {"measurement": "% enzyme activity", "setting": "[1]", "result": 95.77, "unit": "%"},
      {"measurement": "% enzyme activity", "setting": "[2]", "result": 102.90, "unit": "%"},
      {"measurement": "% enzyme activity", "setting": "[3]", "result": 92.71, "unit": "%"},
      {"measurement": "% enzyme activity", "setting": "[4]", "result": 97.67, "unit": "%"},
      {"measurement": "% enzyme activity", "setting": "[5]", "result": 76.01, "unit": "%"},
      {"measurement": "remaining activity at 1 µM", "setting": "[6]", "result": 99.9, "unit": "%"},
      {"measurement": "remaining activity at 1 µM", "setting": "[7]", "result": 58.3, "unit": "%"},
      {"measurement": "remaining activity at 1 µM", "setting": "[8]", "result": 95.2, "unit": "%"},
      {"measurement": "remaining activity at 1 µM", "setting": "[9]", "result": 84.1, "unit": "%"}
    ]},
    {"compound": "COc1cc(-c2cncc(-c3ccc(N4C[C@@H](C)N(C)[C@@H](C)C4)cc3)c2C)cc(F)c1C(N)=O", "note": "[Compound 26c, 2-Fluoro-6-methoxy-4-(4-methyl-5-(4-((3R,5S)-3,4,5-trimethylpiperazin-1-yl)phenyl)pyridin-3-yl)benzamide]", "values": [
      {"measurement": "% enzyme activity", "setting": "[1]", "result": 96.59, "unit": "%"},
      {"measurement": "% enzyme activity", "setting": "[2]", "result": 97.53, "unit": "%"},
      {"measurement": "% enzyme activity", "setting": "[3]", "result": 97.52, "unit": "%"},
      {"measurement": "% enzyme activity", "setting": "[4]", "result": 97.25, "unit": "%"},
      {"measurement": "% enzyme activity", "setting": "[5]", "result": 89.56, "unit": "%"},
      {"measurement": "remaining activity at 1 µM", "setting": "[6]", "result": 101, "unit": "%"},
      {"measurement": "remaining activity at 1 µM", "setting": "[7]", "result": 73.9, "unit": "%"},
      {"measurement": "remaining activity at 1 µM", "setting": "[8]", "result": 99.2, "unit": "%"},
      {"measurement": "remaining activity at 1 µM", "setting": "[9]", "result": 94.5, "unit": "%"}
    ]}
  ]
}
